Data published in ChEMBL document CHEMBL1129745, “Synthesis and antibacterial activity of new tropone-substituted phenyloxazolidinone antibacterial agents 1. Identification of leads and importance of the tropone substitution pattern” (1996).
≈ marks a conversion by molar mass, not a printed value.

Key:
Format in all cases: functional
[1] = test system: Mycobacterium tuberculosis; assay: Compound was tested in vitro for antibacterial activity against Mycobacterium tuberculosis H37 Rv.
[2] = test system: Streptococcus pneumoniae; assay: Compound was tested in vitro for antibacterial activity against Streptococcus pneumoniae UC 9912.
[3] = test system: Staphylococcus aureus; assay: Compound was tested in vitro for antibacterial activity against methicillin-resistant Staphylococcus aureus UC 6685.
[4] = test system: Staphylococcus epidermidis; assay: Compound was tested in vitro for antibacterial activity against methicillin-resistant Staphylococcus epidermidis UC 12084
[5] = test system: Enterococcus faecalis; assay: Compound was tested in vitro for antibacterial activity against Enterococcus faecalis UC 9217.
[6] = test system: Mus musculus; assay: Amount of drug required (mg/kg body weight/dose) to cure 50% of infected mice subjected to a lethal systemic infection with Staphylococcus aureus UC 9213
[7] = test system: Escherichia coli; assay: Compound was tested in vitro for antibacterial activity against Escherichia coli extracts, using cell free prokaryotic transcription coupled translation (T/T) assay.; parameters: concentration or dose not given beside the values; settings: dose or concentration not given here
[8] = test system: Staphylococcus aureus; assay: Compound was tested in vitro for antibacterial activity against methicillin-susceptible Staphylococcus aureus UC 9213.

Compound | MIC [1] [µg/mL] | MIC [2] [µg/mL] | MIC [3] [µg/mL] | MIC [4] [µg/mL] | MIC [5] [µg/mL] | ED50 [6] [mg/kg] | inhibition [7] [%] | MIC [8] [µg/mL]
C#CCNc1cccc(-c2ccc(N3CC(CNC(C)=O)OC3=O)cc2)cc1=O (stereo not drawn) | ≤ 1 | 0.5 (≈ 1.28 µM) | 1 (≈ 2.55 µM) | 1 (≈ 2.55 µM) | 1 (≈ 2.55 µM) | 3.4 | 76 | 2 (≈ 5.11 µM)
CC(=O)NC[C@H]1CN(c2ccc(C(C)=O)cc2)C(=O)O1 (racemic) [DUP-721] | ≤ 16 | 2 (≈ 7.24 µM) | 4 (≈ 14.5 µM) | 2 (≈ 7.24 µM) | 8 (≈ 29 µM) | 9.4 | 45 | 8 (≈ 29 µM)
CN[C@H](CC(C)C)C(=O)N[C@H]1C(=O)N[C@@H](CC(N)=O)C(=O)N[C@H]2C(=O)N[C@H]3C(=O)N[C@H](C(=O)N[C@H](C(=O)O)c4cc(O)cc(O)c4-c4cc3ccc4O)[C@H](O)c3ccc(c(Cl)c3)Oc3cc2cc(c3O[C@@H]2O[C@H](CO)[C@@H](O)[C@H](O)[C@H]2O[C@H]2C[C@](C)(N)[C@H](O)[C@H](C)O2)Oc2ccc(cc2Cl)[C@H]1O [VANCOMYCIN] |  | 0.5 (≈ 0.345 µM) |  |  |  |  |  | 
COc1cccc(-c2ccc(N3CC(CNC(C)=O)OC3=O)cc2)cc1=O (stereo not drawn) | ≤ 1 | 0.5 (≈ 1.36 µM) | 2 (≈ 5.43 µM) | 0.5 (≈ 1.36 µM) | 2 (≈ 5.43 µM) |  | 90 | 4 (≈ 10.9 µM)
COc1ccc(-c2ccc(N3CC(CNC(C)=O)OC3=O)cc2)ccc1=O (stereo not drawn) | ≤ 1 | 0.25 (≈ 0.679 µM) | 1 (≈ 2.71 µM) | 0.5 (≈ 1.36 µM) | 1 (≈ 2.71 µM) |  | 89 | 2 (≈ 5.43 µM)
C=CCNc1cccc(-c2ccc(N3CC(CNC(C)=O)OC3=O)cc2)cc1=O (stereo not drawn) |  | 0.5 (≈ 1.27 µM) | 1 (≈ 2.54 µM) | 0.5 (≈ 1.27 µM) | 1 (≈ 2.54 µM) | 12.5 | 80 | 2 (≈ 5.08 µM)
COc1cc(-c2ccc(N3CC(CNC(C)=O)OC3=O)cc2)cccc1=O (stereo not drawn) | ≤ 16 | 4 (≈ 10.9 µM) | 16 (≈ 43.4 µM) | 8 (≈ 21.7 µM) | 32 (≈ 86.9 µM) | > 20 | 39 | 64 (≈ 174 µM)
C/N=c1\ccc(-c2ccc(N3CC(CNC(C)=O)OC3=O)cc2)ccc1O (stereo not drawn) |  | 0.25 (≈ 0.68 µM) | 1 (≈ 2.72 µM) | 0.25 (≈ 0.68 µM) | 1 (≈ 2.72 µM) | 4.6 |  | 2 (≈ 5.44 µM)
C=CCNc1ccc(-c2ccc(N3CC(CNC(C)=O)OC3=O)cc2)ccc1=O (stereo not drawn) |  | 0.5 (≈ 1.27 µM) | 1 (≈ 2.54 µM) | 0.5 (≈ 1.27 µM) | 1 (≈ 2.54 µM) | 12.7 | 81 | 2 (≈ 5.08 µM)
C=CCOc1ccc(-c2ccc(N3CC(CNC(C)=O)OC3=O)cc2)ccc1=O (stereo not drawn) |  | 0.25 (≈ 0.634 µM) | 1 (≈ 2.54 µM) | 0.5 (≈ 1.27 µM) | 2 (≈ 5.07 µM) | 7.9 | 74 | 4 (≈ 10.1 µM)
CC(=O)NCC1CN(c2ccc(-c3ccc(N4CCOCC4)c(=O)cc3)cc2)C(=O)O1 (stereo not drawn) | ≤ 1 | 0.5 (≈ 1.18 µM) | 2 (≈ 4.72 µM) | 0.5 (≈ 1.18 µM) | 1 (≈ 2.36 µM) |  | 81 | 2 (≈ 4.72 µM)
